“Also recorded” adds a separate entry of the source. Residues, ends and D or L forms follow the SMILES beside them. *: point of attachment. Cbz = O=C(OCc1ccccc1)*
Assays:
[1] = test system: Molm13 PPM1D-mutant and control single cell clones; test: 72-hour cell viability analysis; format: cell-based, human; conditions: for viability of PPM1D-mutant cells versus control cells in the presence of chemotherapeutic agent: 72 hours, increasing concentrations
Description: FIG. 2B provides immunoblots of whole cell lysates from Molm13 control cells (control), PPM1D-mutant pooled clones and PPM1D frame-shift (fs) mutant single cell clones probed with anti-PPM1D and anti-Actin. […] FIG. 2D is a plot depicting viability assays in Molm13 PPM1D-mutant or control single cells clones that were treated with increasing concentrations of cyclophosphamide for 72 hours. FIG. 2E is a plot depicting viability assays in Molm13 PPM1D-mutant or control single cells clones that were treated with increasing concentrations of cisplatin for 72 hours. […] FIG. 2G is a plot depicting flow cytometric readout of competition experiment with 5% pooled Molm13 PPM1D-mutant cells and 95% pooled Molm13 control cells exposed to 350 nM Cyclophosphamide or vehicle for 24 days. FIG. 2H is a plot depicting flow cytometric readout of competition experiment with 5% pooled Molm13 PPM1D-mutant cells and 95% pooled Molm13 control cells exposed to 1 μM Cisplatin or vehicle for 24 days. […] PPM1D and control sgRNAs were identified through their fluorophores.
The line represents the locally weighted scatterplot smoothing (LOESS) of 0.1. […] FIG. 8B is a vector map of the degradation reporter vector, with different PPM1D cDNA constructs inserted. FIG. 8C is a graph showing EGFP/mCherry ratio for Molm13 cells with overexpression of wild type PPM1D, truncated PPM1D or the C-terminal end of PPM1D. FIG. 8D is a graph showing EGFP/mCherry ratio for Molm13 p53^−/− cells with overexpression of wild type PPM1D, truncated PPM1D or the C-terminal end of PPM1D. FIG. 8E is a graph showing EGFP/mCherry ratio in Molm13 cells before and after exposure to MG132 (10 μM, 6 hours), normalized to pre-treatment values. FIG. 8F is a plot showing cell viability analysis in Molm13 control cells (control), Molm13 PPM1D truncating mutant cells (PPM1D mutant) and Molm13 cells with overexpression of wild-type PPM1D (WT overexpression). […] For all experiments the following apply: *=p<0.05, **=p<0.01, ***=p<0.001,****=p<0.0001
(§1) 72 hour cell viability analysis in Molm13 PPM1D-mutant and control single cell clones after exposure to increasing doses of GSK2830371. FIG. 10F is a graph showing percent Annexin V positive cells in cells treated with PPM1D inhibitor or vehicle. Annexin V staining and flow cytometric analysis of Molm13 PPM1D-mutant and control single cell clones exposed to 3 μM of GSK2830371. *=p<0.05, **=p<0.01, ***=p<0.001
To study the role of PPM1D mutations in chemotherapy resistance, mutations in PPM1D were induced using the CRISPR-Cas9 system. […] Using sequence verified PPM1D mutant (fs) and empty vector control Molm13 cells, the effects of mutant and wild type PPM1D in the response to DNA damaging chemotherapy were analyzed. […] (FIG. 1C).
(§2) To study the sensitivity of PPM1D truncating mutations to chemotherapy exposure, frame-shift mutations were introduced in the PPM1D gene in Molm13 AML cells, which are TP53 wild-type, using CRISPR-Cas9.

[2] = test system: Molm13 PPM1D-mutant pooled cells and control pooled cells; test: In vitro competition experiment, PPM1D-mutant cells mixed with control cells; format: cell-based, human; conditions: PPM1D mutant cells mixed with control cells
Description: FIG. 2B provides immunoblots of whole cell lysates from Molm13 control cells (control), PPM1D-mutant pooled clones and PPM1D frame-shift (fs) mutant single cell clones probed with anti-PPM1D and anti-Actin. […] FIG. 2D is a plot depicting viability assays in Molm13 PPM1D-mutant or control single cells clones that were treated with increasing concentrations of cyclophosphamide for 72 hours. FIG. 2E is a plot depicting viability assays in Molm13 PPM1D-mutant or control single cells clones that were treated with increasing concentrations of cisplatin for 72 hours. […] FIG. […] FIG. […] PPM1D and control sgRNAs were identified through their fluorophores.
as §1, §2

[3] = test system: Molm13 PPM1D-mutant and control single cell clones; test: Annexin V staining and flow cytometric analysis; format: cell-based, human; conditions: 400 nM cytarabine, 24 hours
Description: FIG. 9E is a chart depicting the consensus sequence of PPM1D based on substrate analysis of 43 substrate candidates of PPM1D. FIG. 9F depicts 43 potential PPM1D substrate sites on pSer/Thr residues on 25 proteins. […] Only localized sites were considered. Figure discloses SEQ ID NOS 4-20 and 20-31, respectively, in order of appearance. FIG. 9G depicts a schema illustrating the components of the DNA-damage response pathway that are targeted by PPM1D in leukemia cells, based on the results from the phosphoproteomics analysis. Phospho-targets of PPM1D identified by mass spectrometry (FDR<0.1) are shown in bold. Predicted PPM1D target sites that were based on the identified consensus sequence with a glutamine at +1 and >2 acidic residues (p=3.595e-13, Fisher's exact test) are shown in italics.
as §1

[4] = test system: Molm13 PPM1D-mutant and control single cell clones; test: BrdU staining and flow cytometric analysis (cell cycle); format: cell-based, human; conditions: 100 nM cytarabine, 24 hours
PPM1D-mutant cells = test: In vivo competition experiment in bone marrow chimeras treated with cytarabine; conditions: mice
Description: FIG. 5 provides an experimental schema of an in vivo competition experiment. Bone marrow chimaeras were generated by transplanting Mx-Cre Cas9 cKit^+Cas9 cells transduced with a BFP-tagged sgRNA targeting exon 6 of PPM1D or a tRFP-tagged control sgRNA into lethally-irradiated syngeneic recipients in a 1:5 ratio.
PPM1D and control sgRNAs were identified through their fluorophores. […] […] PPM1D and control sgRNAs were identified through their fluorophores.
Whether PPM1D mutations confer resistance to chemotherapy in vivo was examined. In another experiment, bone marrow chimeras were generated using Mx-Cre Cas9 c-Kit^+ cells that were transduced with a BFP-tagged sgRNA targeting exon 6 of PPM1D or a tRFP-tagged control sgRNA and transplanted into lethally-irradiated syngeneic recipients in a 1:5 ratio (FIG. 5). Mice were treated with cytarabine or vehicle after hematopoietic reconstitution.

PPM1D = PPM1D degradation reporter (EGFP/mCherry ratio); format: cell-based, human; conditions: Molm13 cells, MG132 10 μM, 6 hours
Description: The line represents the locally weighted scatterplot smoothing (LOESS) of 0.1. Overlaid are frame-shift and non-sense mutations (black bars) identified in the blood cells of 29,562 persons as described in FIG. 2A. FIG. 8B is a vector map of the degradation reporter vector, with different PPM1D cDNA constructs inserted. FIG. 8C is a graph showing EGFP/mCherry ratio for Molm13 cells with overexpression of wild type PPM1D, truncated PPM1D or the C-terminal end of PPM1D. FIG. 8D is a graph showing EGFP/mCherry ratio for Molm13 p53^−/− cells with overexpression of wild type PPM1D, truncated PPM1D or the C-terminal end of PPM1D. FIG. 8E is a graph showing EGFP/mCherry ratio in Molm13 cells before and after exposure to MG132 (10 μM, 6 hours), normalized to pre-treatment values. […]
A reporter vector was generated in which wild-type PPM1D cDNA (wt), PPM1D truncation mutants, or the last 80 amino-acids (C-terminal region) were cloned in frame with GFP, so the level of expression of the PPM1D sequences could be monitored by GFP expression (FIG. 8B, Table 1).
The fluorescence level of mCherry, which is expressed following an IRES sequence, provided an internal control for vector expression in each cell. […]

For `O=C1/C(=C/c2cccs2)CC/C1=C\c1cccs1` [CCT007093], the “sensitivity of PPM1D-mutant cells versus control cells to single agent PPM1D inhibitor, cell viability” value ([1]; 72 hour, increasing doses) was “increased sensitivity to treatment with the PPM1D inhibitor CCT007093 in comparison to wild-type (wt) control cells; also recorded: increased sensitivity to PPM1D inhibition with either compound in comparison to wild type control cells”.
`N.N.[Cl][Pt][Cl]` [Cisplatin] was tested, and the “viability of PPM1D-mutant cells versus control cells in the presence of chemotherapeutic agent” value [1] was “increased viability at 72 hours”.
In the case of `Nc1ccn([C@@H]2O[C@H](CO)[C@@H](O)[C@@H]2O)c(=O)n1` [Cytarabine], the “viability of PPM1D-mutant cells versus control cells in the presence of chemotherapeutic agent” value [1] was “increased resistance to Cytarabine in PPM1D mutant cells compared to empty vector controls; also recorded: resistance to treatment with Cytarabine”, the “viability of PPM1D-mutant cells versus control cells in the presence of chemotherapeutic agent” value ([1]; listed as cytarabine) was “increased viability at 72 hours” and the “competitive advantage of PPM1D-mutant cells under chemotherapy” value [2] was “PPM1D mutant cells had a competitive advantage”. For the same compound, the “apoptosis of PPM1D-mutant versus control cells after chemotherapy, Annexin V staining” value [3] was “decreased apoptosis”, the “progression to G2/M phase of PPM1D-mutant versus control cells after chemotherapy” value [4] was “increased progression to G2/M phase” and the “PPM1D-mutant cells in the peripheral blood after cytarabine treatment” value (PPM1D-mutant cells; 1:5 chimeras, several rounds of cytarabine) was “significant, selective increase of PPM1D-mutant cells in the peripheral blood”. The “PPM1D-mutant hematopoietic stem and progenitor cells in the bone marrow” value (PPM1D-mutant cells; 12 weeks, 3 rounds of cytarabine) was “also increased”.
`CC(C)C[C@@H](C=O)NC(=O)[C@H](CC(C)C)NC(=O)[C@H](CC(C)C)NC(=O)OCc1ccccc1` [MG132] (Cbz-Leu-Leu-Leu-aldehyde) was tested, and the “degradation of PPM1D constructs (EGFP/mCherry ratio)” value (PPM1D) was “decreased degradation of wild-type and C-terminal PPM1D, but not of the truncating mutants”.
For `O=P1(N(CCCl)CCCl)NCCCO1` (stereo not drawn) [Cyclophosphamide], the “viability of PPM1D-mutant cells versus control cells in the presence of chemotherapeutic agent” value [1] was “increased viability at 72 hours” and the “competitive advantage of PPM1D-mutant cells under chemotherapy” value [2] was “PPM1D mutant cells had a competitive advantage”.
